From patent US20050049245A1, “Heteroaryl-ethanolamine derivatives as antiviral agents” (priority 2002, published 2005)
Read-outs that look alike come from different tables or passages of the source.

Tests used:
HCMV polymerase = target: T1, HCMV polymerase (Human cytomegalovirus, UniProt P08546); assay: HCMV polymerase scintillation proximity assay (SPA); format: biochemical
T1 construct: made in house; host or cells: recombinant baculovirus-infected SF-9 cells
Procedure: The HCMV polymerase assay is performed using a scintillation proximity assay (SPA) as described in several references, such as N. D. Cook, et al., Pharmaceutical Manufacturing International, pages 49-53 (1992); KY Takeuchi, Laboratory Practice, September issue (1992); U.S. Pat. No. 4,568,649 (1986); which are incorporated by reference herein. Reactions are performed in 96-well plates. The assay is conducted in 100 yl volume with 5.4 mM HEPES (pH 7.5), 11.7 mM KCl, 4.5 mM MgCl2, 0.36 mg/ml BSA, and 90 nM ^3H-dTTP. Assays are run with and without CHAPS, (3-[(3-Cholamidopropyl)-dimethylammonio]-1-propane-sulfonate) at a final concentration of 2 mM. HCMV polymerase is diluted in enzyme dilution buffer containing 50% glycerol, 250 mM NaCl, 10 mM HEPES (pH 7.5), 100 μg/ml BSA, and 0.01% sodium azide. The HCMV polymerase, which is expressed in recombinant baculovirus-infected SF-9 cells and purified according to literature procedures, is added at 10% (or 10 μl) of the final reaction volume, i.e., 100 μl. Compounds are diluted in 50% DMSO and 10 μl are added to each well. Control wells contain an equivalent concentration of DMSO. Unless noted otherwise, reactions are initiated via the addition of 6 nM biotinylated poly(dA)-oligo(dT) template/primer to reaction mixtures containing the enzyme, substrate, and compounds of interest. Plates are incubated in a 25° C. or 37° C. H2O bath and terminated via the addition of 40 μl/reaction of 0.5 M EDTA (pH 8) per well. Reactions are terminated within the time-frame during which substrate incorporation is linear and varied depending upon the enzyme and conditions used, i.e., 30 min. for HCMV polymerase. Ten (10) μl of streptavidin-SPA beads (20 mg/ml in PBS/10% glycerol) are added following termination of the reaction. Plates are incubated 10 min. at 37° C., then equilibrated to room temperature, and counted on a Packard Topcount. Linear regressions are performed and IC50's are calculated using computer software.
A modified version of the above HCMV polymerase assay is performed as described above, but with the following changes: Compounds are diluted in 100% DMSO until final dilution into assay buffer. In the previous assay, compounds are diluted in 50% DMSO. 4.5 mM Dithiothreitol (DTT) is added to the polymerase buffer.
All results are listed as Polymerase IC50 ([…]) values. In Table 1, the term “n.d.” refers to activity data not determined.

VZV polymerase = VZV polymerase (Varicella-zoster virus, UniProt P09252); assay: VZV polymerase assay (Table 1); format: biochemical
Chain of VZV polymerase (P09252 whole entry): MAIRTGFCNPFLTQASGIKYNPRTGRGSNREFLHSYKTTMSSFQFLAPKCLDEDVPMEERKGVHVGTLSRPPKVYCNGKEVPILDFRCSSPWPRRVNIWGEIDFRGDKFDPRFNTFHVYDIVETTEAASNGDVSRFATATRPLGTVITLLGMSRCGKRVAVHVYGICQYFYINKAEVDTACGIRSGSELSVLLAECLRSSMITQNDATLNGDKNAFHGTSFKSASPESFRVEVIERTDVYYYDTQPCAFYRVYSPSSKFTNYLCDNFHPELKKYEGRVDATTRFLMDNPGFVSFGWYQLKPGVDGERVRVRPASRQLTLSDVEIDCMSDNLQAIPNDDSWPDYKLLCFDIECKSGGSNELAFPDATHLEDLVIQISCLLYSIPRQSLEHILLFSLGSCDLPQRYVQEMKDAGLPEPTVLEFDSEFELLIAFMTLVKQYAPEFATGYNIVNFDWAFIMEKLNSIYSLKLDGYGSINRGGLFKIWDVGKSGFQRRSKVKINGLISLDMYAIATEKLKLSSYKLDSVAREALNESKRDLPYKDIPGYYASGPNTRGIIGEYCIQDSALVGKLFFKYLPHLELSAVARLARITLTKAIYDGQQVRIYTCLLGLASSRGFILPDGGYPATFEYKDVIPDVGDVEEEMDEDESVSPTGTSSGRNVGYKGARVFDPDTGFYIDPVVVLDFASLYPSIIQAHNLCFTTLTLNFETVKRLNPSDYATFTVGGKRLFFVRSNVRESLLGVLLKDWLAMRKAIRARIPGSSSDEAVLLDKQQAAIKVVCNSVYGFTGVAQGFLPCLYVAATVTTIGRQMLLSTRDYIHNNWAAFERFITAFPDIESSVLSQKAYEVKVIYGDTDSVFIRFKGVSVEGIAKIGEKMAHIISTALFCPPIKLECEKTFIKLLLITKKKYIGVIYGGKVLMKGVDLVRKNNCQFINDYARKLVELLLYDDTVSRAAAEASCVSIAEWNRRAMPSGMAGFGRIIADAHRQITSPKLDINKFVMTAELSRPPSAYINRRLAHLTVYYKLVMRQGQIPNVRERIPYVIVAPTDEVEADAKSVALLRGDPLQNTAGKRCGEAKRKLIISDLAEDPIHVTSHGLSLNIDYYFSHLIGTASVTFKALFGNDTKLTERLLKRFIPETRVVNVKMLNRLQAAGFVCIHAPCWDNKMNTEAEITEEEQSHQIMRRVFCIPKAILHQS

HSV polymerase = HSV polymerase (Human herpesvirus 1, UniProt P04293); assay: HSV polymerase assay (Table 1); format: biochemical
Chain of HSV polymerase (P04293 whole entry): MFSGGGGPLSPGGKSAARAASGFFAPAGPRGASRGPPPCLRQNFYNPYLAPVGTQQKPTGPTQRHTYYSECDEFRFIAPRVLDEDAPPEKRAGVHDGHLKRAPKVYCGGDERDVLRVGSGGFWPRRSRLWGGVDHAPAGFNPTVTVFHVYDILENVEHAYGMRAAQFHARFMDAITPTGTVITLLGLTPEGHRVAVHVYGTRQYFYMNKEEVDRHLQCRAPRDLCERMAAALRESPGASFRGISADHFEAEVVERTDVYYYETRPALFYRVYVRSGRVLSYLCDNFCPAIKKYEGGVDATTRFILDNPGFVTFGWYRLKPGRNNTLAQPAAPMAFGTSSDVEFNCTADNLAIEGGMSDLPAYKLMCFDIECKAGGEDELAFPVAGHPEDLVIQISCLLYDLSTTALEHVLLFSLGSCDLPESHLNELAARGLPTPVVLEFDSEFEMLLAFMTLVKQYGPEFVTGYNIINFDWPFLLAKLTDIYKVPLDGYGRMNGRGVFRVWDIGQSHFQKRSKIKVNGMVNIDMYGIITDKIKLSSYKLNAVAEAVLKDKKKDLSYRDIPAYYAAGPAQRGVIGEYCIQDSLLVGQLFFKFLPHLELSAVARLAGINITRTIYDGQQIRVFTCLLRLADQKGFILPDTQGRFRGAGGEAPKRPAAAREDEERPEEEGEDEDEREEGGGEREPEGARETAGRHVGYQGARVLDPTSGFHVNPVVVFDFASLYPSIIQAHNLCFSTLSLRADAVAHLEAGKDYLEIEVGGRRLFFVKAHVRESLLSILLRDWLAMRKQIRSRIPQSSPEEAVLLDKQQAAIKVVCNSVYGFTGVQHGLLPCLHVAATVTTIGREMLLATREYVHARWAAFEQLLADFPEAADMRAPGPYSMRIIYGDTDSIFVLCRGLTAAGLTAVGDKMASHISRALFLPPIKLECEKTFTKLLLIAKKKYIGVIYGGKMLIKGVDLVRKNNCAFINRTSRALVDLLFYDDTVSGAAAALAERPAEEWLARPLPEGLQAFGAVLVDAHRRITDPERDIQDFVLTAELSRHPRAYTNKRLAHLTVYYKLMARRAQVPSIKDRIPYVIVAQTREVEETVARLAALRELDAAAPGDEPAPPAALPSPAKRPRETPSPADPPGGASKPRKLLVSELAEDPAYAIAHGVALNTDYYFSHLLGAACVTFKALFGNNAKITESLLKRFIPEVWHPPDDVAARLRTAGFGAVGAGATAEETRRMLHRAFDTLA

[1] = HCMV polymerase, SPA, read-out: Polymerase IC50 HCMV
[2] = VZV polymerase, read-out: Polymerase IC50 VZV
[3] = HSV polymerase, read-out: Polymerase IC50 HSV

T1 sequence (P08546 whole entry): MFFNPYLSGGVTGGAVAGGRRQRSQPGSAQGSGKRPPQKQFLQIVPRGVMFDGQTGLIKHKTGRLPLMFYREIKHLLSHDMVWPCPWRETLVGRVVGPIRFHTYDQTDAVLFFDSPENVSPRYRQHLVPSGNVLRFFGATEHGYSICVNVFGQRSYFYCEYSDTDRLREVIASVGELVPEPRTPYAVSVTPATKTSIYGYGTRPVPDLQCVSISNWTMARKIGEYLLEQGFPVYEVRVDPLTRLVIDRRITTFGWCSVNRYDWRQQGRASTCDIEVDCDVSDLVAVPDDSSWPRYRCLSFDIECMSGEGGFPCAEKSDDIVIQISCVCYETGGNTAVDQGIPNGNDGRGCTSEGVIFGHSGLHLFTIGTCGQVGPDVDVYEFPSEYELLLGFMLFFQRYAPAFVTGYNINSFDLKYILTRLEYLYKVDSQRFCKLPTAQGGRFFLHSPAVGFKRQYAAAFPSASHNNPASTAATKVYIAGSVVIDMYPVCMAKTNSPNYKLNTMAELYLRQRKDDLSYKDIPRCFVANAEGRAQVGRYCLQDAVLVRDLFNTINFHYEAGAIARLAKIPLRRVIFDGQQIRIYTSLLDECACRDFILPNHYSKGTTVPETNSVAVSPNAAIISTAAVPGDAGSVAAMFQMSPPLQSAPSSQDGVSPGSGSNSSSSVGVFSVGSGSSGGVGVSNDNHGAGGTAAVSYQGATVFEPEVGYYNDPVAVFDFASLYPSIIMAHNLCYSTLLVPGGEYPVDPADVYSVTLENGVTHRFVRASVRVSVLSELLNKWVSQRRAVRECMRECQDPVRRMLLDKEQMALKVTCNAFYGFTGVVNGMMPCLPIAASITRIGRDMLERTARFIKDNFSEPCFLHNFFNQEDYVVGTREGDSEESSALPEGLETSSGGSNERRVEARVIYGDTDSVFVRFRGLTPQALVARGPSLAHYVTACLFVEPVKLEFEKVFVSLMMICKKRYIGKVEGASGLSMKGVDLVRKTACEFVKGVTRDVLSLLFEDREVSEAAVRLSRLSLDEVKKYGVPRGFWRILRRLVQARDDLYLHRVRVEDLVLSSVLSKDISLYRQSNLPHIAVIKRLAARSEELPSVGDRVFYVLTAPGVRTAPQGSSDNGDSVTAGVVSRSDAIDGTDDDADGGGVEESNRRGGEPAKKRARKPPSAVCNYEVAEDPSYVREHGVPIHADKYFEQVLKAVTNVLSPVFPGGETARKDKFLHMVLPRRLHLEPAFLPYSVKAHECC

IC50 (HCMV polymerase; [1]) | IC50 (VZV polymerase; [2]) | IC50 (HSV polymerase; [3]) | Compound | further results
80 nM | 60 nM | 220 nM | CN(Cc1cc2c(=O)c(C(=O)NCc3ccc(Cl)cc3)cn(C)c2s1)CC(O)c1ccco1 (racemic) [Example 1, rac-N-(4-Chlorobenzyl)-2-(((2-(2-furyl)-2-hydroxyethyl)(methyl)amino)methyl)-7-methyl-4-oxo-4,7-dihydrothieno[2,3-b]pyridine-5-carboxamide] | –
170 nM | 150 nM | 470 nM | CN(Cc1cc2c(=O)c(C(=O)NCc3ccc(Cl)cc3)cn(C)c2s1)CC(O)c1cccs1 (racemic) [Example 6, rac-N-(4-Chlorobenzyl)-2-(((2-hydroxy-2-thien-2-ylethyl)(methyl)amino)methyl)-7-methyl-4-oxo-4,7-dihydrothieno[2,3-b]pyridine-5-carboxamide] | –
1060 nM | – | – | CN(Cc1cc2c(=O)c(C(=O)NCc3ccc(Cl)cc3)cn(C)c2s1)CC(O)c1cn(C)cn1 (racemic) [Example 9, rac-N-(4-Chlorobenzyl)-2-(((2-hydroxy-2-(1-methyl-1H-imidazol-4-yl)ethyl) (methyl)amino)methyl)-7-methyl-4-oxo-4,7-dihydrothieno[2,3-b]pyridine-5-carboxamide] | melting point: 124 to 130 °C
280 nM | – | – | Cc1cc(C(O)CN(C)Cc2cc3c(=O)c(C(=O)NCc4ccc(Cl)cc4)cn(C)c3s2)c(C)o1 (racemic) [Example 12, rac-N-(4-Chlorobenzyl)-2-(((2-(2,5-dimethyl-3-furyl)-2-hydroxyethyl)(methyl)-amino)methyl)-7-methyl-4-oxo-4,7-dihydrothieno[2,3-b]pyridine-5-carboxamide] | melting point: 167 to 172 °C
240 nM | – | – | CN(Cc1cc2c(=O)c(C(=O)NCc3ccc(Cl)cc3)cn(C)c2s1)CC(O)c1ccc(C#N)s1 (racemic) [Example 15, rac-N-(4-Chlorobenzyl)-2-(((2-(5-cyanothien-2-yl)-2-hydroxyethyl)(methyl)-amino)methyl)-7-methyl-4-oxo-4,7-dihydrothieno[2,3-b]pyridine-5-carboxamide] | melting point: 155 to 160 °C (dec.)
120 nM | 110 nM | 390 nM | CN(Cc1cc2c(=O)c(C(=O)NCc3ccc(Cl)cc3)cn(C)c2s1)CC(O)c1nc2ccccc2s1 (racemic) [Example 17, rac-2-(((2-(1,3-Benzothiazol-2-yl)-2-hydroxyethyl)(methyl)amino)methyl)-N-(4-chlorobenzyl)-7-methyl-4-oxo-4,7-dihydrothieno[2,3-b]pyridine-5-carboxamide] | –
90 nM | 80 nM | 170 nM | CCn1cc(C(=O)NCc2ccc(Cl)cc2)c(=O)c2cc(CN(C)CC(O)c3cc4ccccc4o3)sc21 (racemic) [Example 22, rac-2-(((2-(1-Benzofuran-2-yl)-2-hydroxyethyl)(methyl)amino)methyl)-N-(4-chlorobenzyl)-7-ethyl-4-oxo-4,7-dihydrothieno[2,3-b]pyridine-5-carboxamide] | –
260 nM | – | – | CCCn1cc(C(=O)NCc2ccc(Cl)cc2)c(=O)c2cc(CN(C)CC(O)c3cc4ccccc4o3)sc21 (racemic) [Example 23, rac-2-(((2-(1-Benzofuran-2-yl)-2-hydroxyethyl)(methyl)amino)methyl)-N-(4-chlorobenzyl)-7-propyl-4-oxo-4,7-dihydrothieno[2,3-b]pyridine-5-carboxamide] | –
1800 nM | – | – | CN(Cc1cc2c(=O)c(C(=O)NCc3ccc(Cl)cc3)cn(CC(O)CO)c2s1)CC(O)c1cc2ccccc2o1 (racemic) [Example 25, rac-2-(((2-(1-Benzofuran-2-yl)-2-hydroxyethyl)(methyl)amino)methyl)-N-(4-chlorobenzyl)-7-(2,3-dihydroxypropyl)-4-oxo-4,7-dihydrothieno[2,3-b]pyridine-5-carboxamide] | –
– | – | – | CN(Cc1cc2c(=O)c(C(=O)NCc3ccc(Cl)cc3)cn(CCCO)c2s1)CC(O)c1cc2ccccc2o1 (racemic) [Example 28, rac-2-(((2-(1-Benzofuran-2-yl)-2-hydroxyethyl)(methyl)amino)methyl)-N-(4-chlorobenzyl)-7-(3-hydroxypropyl)-4-oxo-4,7-dihydrothieno[2,3-b]pyridine-5-carboxamide] | IC50 (HCMV polymerase): 300 nM
600 nM | – | – | CN(Cc1cc2c(=O)c(C(=O)NCc3ccc(Cl)cc3)cn(CCO)c2s1)CC(O)c1cc2ccccc2o1 (racemic) [Example 29, rac-2-(((2-(1-Benzofuran-2-yl)-2-hydroxyethyl)(methyl)amino)methyl)-N-(4-chlorobenzyl)-7-(2-hydroxyethyl)-4-oxo-4,7-dihydrothieno[2,3-b]pyridine-5-carboxamide] | –
210 nM | 290 nM | 780 nM | CN(Cc1cc2c(=O)c(C(=O)NCc3ccc(Cl)cc3)cn(C)c2s1)C[C@@H](O)c1ccn[nH]1 (single isomer, unassigned) [Example 19] | –
40 nM | 30 nM | 90 nM | CN(Cc1cc2c(=O)c(C(=O)NCc3ccc(Cl)cc3)cn(C)c2s1)C[C@@H](O)c1ccco1 [Example 2, (+)—N-(4-Chlorobenzyl)-2-((((R)-2-(2-furyl)-2-hydroxyethyl)(methyl)amino)-methyl)-7-methyl-4-oxo-4,7-dihydrothieno [2,3-b]pyridine-5-carboxamide] | –
350 nM | – | – | COCCn1cc(C(=O)NCc2ccc(Cl)cc2)c(=O)c2cc(CN(C)C[C@@H](O)c3ccco3)sc21 [Example 21, N-(4-Chlorobenzyl)-2-((((2R)-2-(2-furyl)-2-hydroxyethyl)(methyl)amino)methyl)-7-(2-methoxyethyl)-4-oxo-4,7-dihydrothieno[2,3-b]pyridine-5-carboxamide] | –
150 nM | 330 nM | 540 nM | CN(Cc1cc2c(=O)c(C(=O)NCc3ccc(Cl)cc3)cn(CC(O)CO)c2s1)C[C@@H](O)c1ccco1 (stereo partly drawn) [Example 26, N-(4-Chlorobenzyl)-7-(2,3-dihydroxypropyl)-2-((((2R)-2-(2-furyl)-2-hydroxy-ethyl)(methyl)amino)methyl)-4-oxo-4,7-dihydrothieno[2,3-b]pyridine-5-carboxamide] | –
– | – | – | CN(Cc1cc2c(=O)c(C(=O)NCc3ccc(Cl)cc3)cn(CCCO)c2s1)C[C@@H](O)c1ccco1 [Example 27, N-(4-Chlorobenzyl)-2-((((2R)-2-(2-furyl)-2-hydroxyethyl)(methyl)amino)methyl)-7-(3-hydroxypropyl)-4-oxo-4,7-dihydrothieno[2,3-b]pyridine-5-carboxamide] | IC50 (HCMV polymerase): 360 nM; IC50 (VZV polymerase): 280 nM; IC50 (HSV polymerase): 590 nM
180 nM | 220 nM | 740 nM | CCCn1cc(C(=O)NCc2ccc(Cl)cc2)c(=O)c2cc(CN(C)C[C@@H](O)c3ccco3)sc21 [Example 32, N-(4-Chlorobenzyl)-2-((((2R)-2-(2-furyl)-2-hydroxyethyl)(methyl)amino)methyl)-4-oxo-7-propyl-4,7-dihydrothieno[2,3-b]pyridine-5-carboxamide] | –
20 nM | – | 80 nM | CN(Cc1cc2c(=O)c(C(=O)NCc3ccc(Cl)cc3)cn(C)c2s1)CC(O)c1ccc(Cl)o1 (centres unmarked) [Example 33, N-(4-Chlorobenzyl)-2-(((2-(5-chloro-2-furyl)-2-hydroxyethyl)(methyl)amino)-methyl)-7-methyl-4-oxo-4,7-dihydrothieno[2,3-b]pyridine-5-carboxamide] | –
240 nM | 340 nM | 1080 nM | CN(Cc1cc2c(=O)c(C(=O)NCc3ccc(Cl)cc3)cn(CCO)c2s1)C[C@@H](O)c1ccco1 [Example 34, N-(4-Chlorobenzyl)-2-((((2R)-2-(2-furyl)-2-hydroxyethyl)(methyl)amino)methyl)-7-(2-hydroxyethyl)-4-oxo-4,7-dihydrothieno[2,3-b]pyridine-5-carboxamide] | –
560 nM | – | – | CN(Cc1cc2c(=O)c(C(=O)NCc3ccc(Cl)cc3)cn(CCOCCO)c2s1)C[C@@H](O)c1ccco1 [Example 35, N-(4-Chlorobenzyl)-2-((((2R)-2-(2-furyl)-2-hydroxyethyl)(methyl)amino)methyl)-7-(2-(2-hydroxyethoxy)ethyl)-4-oxo-4,7-dihydrothieno[2,3-b]pyridine-5-carboxamide] | –
